Values joined by “and” are separate entries in the source; they are usually repeats but may differ in a detail not shown here. Identical values can stand only once. Inconclusive results and toxic doses are left out. Rule as the data show it: active = T/C of 150% or more; inactive = T/C below 125%.
Test system: L1210 leukemia ip in BDF1 mice, survival T/C
Assay: NCI In Vivo Anticancer Drug Screen. Data for tumor model L1210 Leukemia (intraperitoneal) in B6D2F1 (BDF1) mice
Conditions: higher = longer survival
Procedure, shortened: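 Mice bearing the transplanted tumor received compound or vehicle. Survival of the treated group was divided by that of the vehicle-treated control group to give the ratio.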

[1] = endpoint: mean survival time, dose: 100.0 mg/kg/injection, schedule: Q04DX003 (ip), vehicle: Klucel (hydroxypropylcellulose) (HPC)
[2] = endpoint: mean survival time, dose: 100.0 mg/kg/injection, schedule: Q01DX009 (ip), vehicle: Klucel (hydroxypropylcellulose) (HPC)
[3] = endpoint: mean survival time, dose: 200.0 mg/kg/injection, schedule: Q01DX009 (ip), vehicle: Klucel (hydroxypropylcellulose) (HPC)
[4] = endpoint: mean survival time, dose: 100.0 mg/kg/injection, schedule: Q04DX003 (ip), vehicle: saline with Tween-80
[5] = endpoint: mean survival time, dose: 200.0 mg/kg/injection, schedule: Q04DX003 (ip), vehicle: saline with Tween-80
[6] = endpoint: mean survival time, dose: 400.0 mg/kg/injection, schedule: Q04DX003 (ip), vehicle: saline with Tween-80
[7] = endpoint: mean survival time, dose: 50.0 mg/kg/injection, schedule: Q01DX009 (ip), vehicle: saline
[8] = endpoint: mean survival time, dose: 50.0 mg/kg/injection, schedule: Q04DX003 (ip), vehicle: saline
[9] = endpoint: mean survival time, dose: 100.0 mg/kg/injection, schedule: Q04DX003 (ip), vehicle: saline
[10] = endpoint: mean survival time, dose: 100.0 mg/kg/injection, schedule: Q01DX009 (ip), vehicle: saline
[11] = endpoint: mean survival time, dose: 200.0 mg/kg/injection, schedule: Q01DX009 (ip), vehicle: saline
[12] = endpoint: mean survival time, dose: 200.0 mg/kg/injection, schedule: Q04DX003 (ip), vehicle: saline

Measured: T/C

CC12CCC3(CC1CCC1OC12)OCCO3 (stereo unspecified)
inactive: endpoint: mean survival time, dose: 100.0 mg/kg/injection, schedule: Q01DX001 (ip), vehicle: carboxymethylcellulose (CMC) 103 % of control | endpoint: mean survival time, dose: 200.0 mg/kg/injection, schedule: Q01DX001 (ip), vehicle: carboxymethylcellulose (CMC) 100 % of control | endpoint: mean survival time, dose: 400.0 mg/kg/injection, schedule: Q01DX001 (ip), vehicle: carboxymethylcellulose (CMC) 97 % of control

CCC(CC)=NNC(N)=O
inactive: endpoint: mean survival time, dose: 25.0 mg/kg/injection, schedule: Q04DX003 (ip), vehicle: Klucel (hydroxypropylcellulose) (HPC) 104 % of control | endpoint: mean survival time, dose: 50.0 mg/kg/injection, schedule: Q04DX003 (ip), vehicle: Klucel (hydroxypropylcellulose) (HPC) 100 % of control | [1] 103 % of control and 104 % of control

O=c1n(-c2ccccc2)c(=O)n2n1C1/C=C\C=C/C2C2CCC21 (stereo unspecified)
inactive: endpoint: mean survival time, dose: 12.5 mg/kg/injection, schedule: Q01DX009 (ip), vehicle: saline with Tween-80 92 % of control | endpoint: mean survival time, dose: 12.5 mg/kg/injection, schedule: Q04DX003 (ip), vehicle: saline with Tween-80 100 % of control | endpoint: mean survival time, dose: 25.0 mg/kg/injection, schedule: Q01DX009 (ip), vehicle: saline with Tween-80 95 % of control | endpoint: mean survival time, dose: 25.0 mg/kg/injection, schedule: Q04DX003 (ip), vehicle: saline with Tween-80 95 % of control | endpoint: mean survival time, dose: 50.0 mg/kg/injection, schedule: Q04DX003 (ip), vehicle: saline with Tween-80 87 % of control

C1=C2NNC(c3ccccc3)=C(c3ccccc3)C2=CCC1 (tested in a mixture with another compound)
inactive: endpoint: mean survival time, dose: 50.0 mg/kg/injection, schedule: Q01DX009 (ip), vehicle: Klucel (hydroxypropylcellulose) (HPC) 94 % of control | [2] 90 % of control | [3] 90 % of control

Cn1nnnc1/C(=C/c1ccccc1)C(=O)O
inactive: [4] 95 % of control | [5] 95 % of control | [6] 90 % of control

CCCCCC[Se]CCCCCC
inactive: endpoint: mean survival time, dose: 12.5 mg/kg/injection, schedule: Q01DX009 (ip), vehicle: saline 98 % of control | endpoint: mean survival time, dose: 25.0 mg/kg/injection, schedule: Q01DX009 (ip), vehicle: saline 96 % of control | endpoint: mean survival time, dose: 25.0 mg/kg/injection, schedule: Q04DX003 (ip), vehicle: saline 101 % of control | [7] 93 % of control and 102 % of control | [8] 97 % of control | [9] 98 % of control and 100 % of control

c1coc(CNc2cc(NCc3ccco3)ncn2)c1
inactive: [2] 98 % of control | [3] 95 % of control

CCC1NCCc2cc(OC)c(O)cc21 (stereo unspecified)
inactive: endpoint: mean survival time, dose: 75.0 mg/kg/injection, schedule: Q01DX001 (ip), vehicle: saline 106 % of control | endpoint: mean survival time, dose: 150.0 mg/kg/injection, schedule: Q01DX001 (ip), vehicle: saline 100 % of control

COC(=O)c1ccccc1N=NNc1ccc(C(F)(F)F)c([N+](=O)[O-])c1
inactive: [4] 98 % of control | [5] 103 % of control | [6] 88 % of control

CN(C)C1CCN(Cc2ccccc2)CC1
inactive: [7] 94 % of control | [8] 100 % of control | [10] 96 % of control | [9] 97 % of control | [11] 93 % of control | [12] 92 % of control

[O-]/[N+](=C\C=C\c1ccccc1)c1ccccc1
inactive: [2] 100 % of control | [1] 103 % of control | [3] 90 % of control | endpoint: mean survival time, dose: 200.0 mg/kg/injection, schedule: Q04DX003 (ip), vehicle: Klucel (hydroxypropylcellulose) (HPC) 95 % of control | endpoint: mean survival time, dose: 400.0 mg/kg/injection, schedule: Q01DX009 (ip), vehicle: Klucel (hydroxypropylcellulose) (HPC) 89 % of control | endpoint: mean survival time, dose: 400.0 mg/kg/injection, schedule: Q04DX003 (ip), vehicle: Klucel (hydroxypropylcellulose) (HPC) 86 % of control

CCOC(N)=O
inactive: endpoint: mean survival time, dose: 27.0 mg/kg/injection, schedule: Q03HX024 (ip), vehicle: saline 97 % of control | endpoint: mean survival time, dose: 40.0 mg/kg/injection, schedule: Q03HX024 (ip), vehicle: saline 110 % of control | endpoint: mean survival time, dose: 60.0 mg/kg/injection, schedule: Q03HX024 (ip), vehicle: saline 95 % of control | endpoint: mean survival time, dose: 62.6 mg/kg/injection, schedule: Q01DX Z (ip), vehicle: carboxymethylcellulose (CMC) 106 % of control | endpoint: mean survival time, dose: 90.0 mg/kg/injection, schedule: Q03HX024 (ip), vehicle: saline 101 % of control | [10] 102 % of control | [9] 95 % of control | endpoint: mean survival time, dose: 120.0 mg/kg/injection, schedule: Q01DX009 (ip), vehicle: saline 98 % of control | endpoint: mean survival time, dose: 125.0 mg/kg/injection, schedule: Q01DX010 (ip), vehicle: saline 110 % of control and 87 % of control | endpoint: mean survival time, dose: 125.0 mg/kg/injection, schedule: Q01DX Z (ip), vehicle: saline 115 % of control | endpoint: mean survival time, dose: 125.25 mg/kg/injection, schedule: Q01DX Z (ip), vehicle: carboxymethylcellulose (CMC) 101 % of control | endpoint: mean survival time, dose: 135.0 mg/kg/injection, schedule: Q03HX024 (ip), vehicle: saline 110 % of control | endpoint: mean survival time, dose: 180.0 mg/kg/injection, schedule: Q01DX009 (ip), vehicle: saline 102 % of control | endpoint: mean survival time, dose: 188.0 mg/kg/injection, schedule: Q01DX Z (ip), vehicle: saline 100 % of control | [11] 104 % of control | [12] 101 % of control | endpoint: mean survival time, dose: 250.0 mg/kg/injection, schedule: Q01DX010 (ip), vehicle: saline 111 % of control and 112 % of control | endpoint: mean survival time, dose: 250.0 mg/kg/injection, schedule: Q01DX Z (ip), vehicle: saline 94 % of control | endpoint: mean survival time, dose: 250.5 mg/kg/injection, schedule: Q01DX Z (ip), vehicle: carboxymethylcellulose (CMC) 106 % of control | endpoint: mean survival time, dose: 266.0 mg/kg/injection, schedule: Q01DX001 (ip), vehicle: saline 100 % of control | endpoint: mean survival time, dose: 270.0 mg/kg/injection, schedule: Q01DX009 (ip), vehicle: saline 108 % of control | endpoint: mean survival time, dose: 280.0 mg/kg/injection, schedule: Q02DX010 (ip), vehicle: carboxymethylcellulose (CMC) 109 % of control | endpoint: mean survival time, dose: 375.0 mg/kg/injection, schedule: Q01DX Z (ip), vehicle: saline 110 % of control | endpoint: mean survival time, dose: 400.0 mg/kg/injection, schedule: Q01DX001 (ip), vehicle: saline 119 % of control | endpoint: mean survival time, dose: 400.0 mg/kg/injection, schedule: Q01DX009 (ip), vehicle: saline 107 % of control and 110 % of control | endpoint: mean survival time, dose: 400.0 mg/kg/injection, schedule: Q04DX003 (ip), vehicle: saline 100 % of control | endpoint: mean survival time, dose: 500.0 mg/kg/injection, schedule: Q01DX010 (ip), vehicle: saline 123 % of control | endpoint: mean survival time, dose: 500.0 mg/kg/injection, schedule: Q01DX Z (ip), vehicle: saline 105 % of control | endpoint: mean survival time, dose: 501.0 mg/kg/injection, schedule: Q01DX Z (ip), vehicle: carboxymethylcellulose (CMC) 108 % of control | endpoint: mean survival time, dose: 600.0 mg/kg/injection, schedule: Q01DX001 (ip), vehicle: saline 121 % of control | endpoint: mean survival time, dose: 600.0 mg/kg/injection, schedule: Q01DX009 (ip), vehicle: saline 98 % of control | endpoint: mean survival time, dose: 750.0 mg/kg/injection, schedule: Q01DX Z (ip), vehicle: saline 103 % of control | endpoint: mean survival time, dose: 1000.0 mg/kg/injection, schedule: Q01DX010 (ip), vehicle: saline 94 % of control | endpoint: mean survival time, dose: 1000.0 mg/kg/injection, schedule: Q01DX Z (ip), vehicle: saline 105 % of control | endpoint: mean survival time, dose: 1074.0 mg/kg/injection, schedule: Q01DX001 (ip), vehicle: saline 115 % of control | endpoint: median survival time, dose: 125.0 mg/kg/injection, schedule: Q01DX009 (ip), vehicle: saline 100 % of control | endpoint: median survival time, dose: 250.0 mg/kg/injection, schedule: Q01DX009 (ip), vehicle: saline 100 % of control | endpoint: median survival time, dose: 500.0 mg/kg/injection, schedule: Q01DX009 (ip), vehicle: saline 100 % of control and 110 % of control | endpoint: median survival time, dose: 1000.0 mg/kg/injection, schedule: Q01DX009 (ip), vehicle: saline 87 % of control

Reference: PubChem BioAssay AID248 (DTP/NCI, 2004)
